According to patent publication US20130296311A1, “INHIBITORS OF HCV NS5A” (PRESIDIO PHARMACEUTICALS, INC., priority 2010, published 2013):

The molecules below were run on HCV 1b_Huh-Luc/Neo-ET cell line persistently expressing a bicistronic genotype 1b replicon in Huh 7 cells (assay: HCV replicon assay (luciferase readout, 72 h)). Settings: Hepatitis C virus, Huh-7, 72 h, read-out: Inhibition of HCV genotype 1b.
Type: cell-based, HCV genotype 1b
Outline: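 EC50 values come from a four-parameter fit of luciferase signal as % of untreated control, repeated across several determinations. The signal is from the HCV 1b_Huh-Luc/Neo-ET replicon line, dosed in triplicate one day post-plating and incubated 72 h before Bright-Glo readout.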

Row | SMILES | EC50
1 | COC(=O)N[C@H](C(=O)N1CCC[C@H]1c1ncc(-c2ccc(C#Cc3ccc(-c4cnc([C@@H]5CCCN5C(=O)[C@@H](c5ccccc5)N5CCOC5=O)[nH]4)cc3)cc2)[nH]1)C(C)C [Compound 1007] | < 1 nM
2 | COC(=O)N[C@@H](C(=O)N(C)[C@@H](C)c1ncc(-c2ccc(C#Cc3ccc(-c4cnc([C@@H]5CCCN5C(=O)[C@H](NC(=O)OC)c5ccccc5)[nH]4)cc3)cc2)[nH]1)c1ccccc1 [Compound 274] | < 1 nM
3 | COC(=O)N[C@H](C(=O)N1CCC[C@H]1c1ncc(-c2ccc(C#Cc3ccc(-c4cnc([C@@H]5CCCN5C(=O)[C@@H](NC(=O)OC)[C@@H](C)O)[nH]4)cc3)cc2)[nH]1)[C@@H](C)O [Compound 283] | < 1 nM
4 | CC[C@H](NC(=O)OC)C(=O)N1CCC[C@H]1c1ncc(-c2ccc(C#Cc3ccc(-c4cnc([C@@H]5CCCN5C(=O)[C@H](CC)NC(=O)OC)[nH]4)cc3)cc2)[nH]1 [Compound 960] | < 1 nM
5 | COC(=O)N[C@@H](C(=O)N1CCC[C@H]1c1ncc(-c2ccc(C#Cc3cnc([C@@H]4CCCN4C(=O)[C@@H](c4ccccc4)N(C)C)[nH]3)cc2)[nH]1)c1ccccc1 [Compound 128] | < 1 nM
6 | COC(=O)N[C@H](C(=O)N1CCC[C@H]1c1nc2ccc(C#Cc3ccc(-c4cnc([C@@H]5CCCN5C(=O)[C@H](C(C)C)N(C)C)[nH]4)cc3)cc2[nH]1)C(C)C [Compound 866] | < 1 nM
7 | COC(=O)N[C@H](C(=O)N1CCC[C@H]1c1nc(-c2ccc3cc(C#Cc4[nH]c([C@@H]5CCCN5C(=O)[C@@H](NC(=O)OC)C(C)C)nc4C)ccc3c2)c[nH]1)C(C)C [Compound 1081] | < 1 nM
8 | COC(=O)N[C@H](C(=O)N1CCC[C@H]1c1nc2ccc(C#Cc3ccc(-c4ccc5nc([C@@H]6CCCN6C(=O)[C@@H](NC(=O)OC)C(C)C)[nH]c5c4)nc3)cc2[nH]1)C(C)C [compound 1083] | < 1 nM
9 | CCC(CC)[C@H](NC(=O)OC)C(=O)N1CCC[C@H]1c1ncc(-c2ccc(C#Cc3ccc4nc([C@@H]5CCCN5C(=O)[C@@H](NC(=O)OC)C(CC)CC)[nH]c4c3)cc2)[nH]1 [Compound 1030] | < 1 nM
10 | COC(=O)N[C@@H](C(=O)N1CCC[C@H]1c1ncc(-c2ccc(C#Cc3ccc(-c4cnc([C@@H]5CCCN5C(=O)[C@@H]5CCCO5)[nH]4)cc3)cc2)[nH]1)c1ccccc1 [Compound 186] | < 1 nM
11 | O=C(N[C@@H](C(=O)N1CCC[C@H]1c1ncc(-c2ccc(C#Cc3ccc(-c4cnc([C@@H]5CCCN5C(=O)[C@H](NC(=O)N5CCCC5)c5ccccc5)[nH]4)cc3)cc2)[nH]1)c1ccccc1)N1CCCC1 [Compound 249] | < 1 nM
12 | COC(=O)N[C@@H](C(=O)N1CCC[C@H]1c1ncc(-c2ccc(C#Cc3ccc(-c4cnc([C@@H]5CCCN5C(=O)C5(c6ccccc6)CC5)[nH]4)cc3)cc2)[nH]1)c1ccccc1 [Compound 257] | < 1 nM
13 | COC(=O)NC1(C(=O)N2CCC[C@H]2c2ncc(-c3ccc(C#Cc4ccc5nc([C@@H]6CCCN6C(=O)C6(NC(=O)OC)CCCC6)[nH]c5c4)cc3)[nH]2)CCCC1 [Compound 1044] | 10 to 999 nM
14 | O=C(N[C@@H](C(=O)N1CCC[C@H]1C(=O)Nc1ccc(C#Cc2ccc(-c3cnc([C@@H]4CCCN4C(=O)[C@H](NC(=O)C4CC4)c4ccccc4)[nH]3)cc2)cc1)c1ccccc1)C1CC1 [Compound 166] | < 1 nM
15 | COC(=O)N[C@H](C(=O)N1CCC[C@H]1c1nc2c([nH]1)-c1ccc(C#Cc3ccc(-c4cnc([C@@H]5CCCN5C(=O)[C@@H](NC(=O)OC)C5CCOCC5)[nH]4)cc3)cc1CC2)C(C)C [Compound 1091] | < 1 nM
16 | COC(=O)N[C@@H](C(=O)N1CCC[C@H]1CNC(=O)c1ccc(C#Cc2ccc(-c3cnc([C@@H]4CCCN4C(=O)[C@H](NC(=O)OC)c4ccccc4)[nH]3)cc2)cc1)c1ccccc1 [Compound 211] | < 1 nM
17 | CNC(=O)N[C@@H](C(=O)N1CCC[C@H]1c1ncc(C#Cc2ccc(C#Cc3cnc([C@@H]4CCCN4C(=O)[C@H](NC(=O)NC)c4ccccc4)[nH]3)cc2)[nH]1)c1ccccc1 [Compound 307] | < 1 nM
18 | COC(=O)N[C@@H](C(=O)N1CCC[C@H]1c1ncc(-c2ccc(C#Cc3ccc(-c4cnc([C@@H]5CCCN5C(=O)[C@H](NS(C)(=O)=O)c5ccccc5)[nH]4)cc3)cc2)[nH]1)c1ccccc1 [Compound 225] | < 1 nM
19 | COC(=O)N[C@H](C(=O)N1CCC[C@H]1c1ncc(-c2ccc(C#Cc3ccc4nc([C@@H]5CCCN5C(=O)[C@@H](NC(=O)OC)C(C)C)[nH]c4c3)nc2)[nH]1)C(C)C [Compound 1033] | < 1 nM
20 | COC(=O)N[C@H](C(=O)N1CCC[C@H]1c1nc2ccc(C#Cc3ccc(-c4cnc([C@@H]5CCCN5)[nH]4)cc3)cc2[nH]1)C(C)C [Compound 1055] | 10 to 999 nM
21 | COC(=O)N[C@@H](C(=O)N1CCC[C@H]1c1ncc(-c2ccc(C#Cc3ccc(-c4cnc([C@@H]5CCCN5C(=O)[C@H](NC(=O)OC)c5ccccc5)[nH]4)c(F)c3)cc2)[nH]1)c1ccccc1 [Compound 1013] | < 1 nM
22 | COC(=O)N[C@H](C(=O)N1CCC[C@H]1c1ncc(-c2ccc(C#Cc3ccc(-c4cnc([C@@H]5CCCN5C(=O)[C@@H](NC(=O)OC)C(C)(C)O)[nH]4)cc3)cc2)[nH]1)C(C)C [Compound 994] | < 1 nM

Same assay, conditions: Hepatitis C virus, Huh-7, read-out: Inhibition of HCV genotype 1b

Row | SMILES | EC50
23 | COC(=O)N[C@H](C(=O)N1CCC[C@H]1CNC(=O)c1ccc(C#Cc2ccc3nc([C@@H]4CCCN4C(=O)[C@@H](NC(=O)OC)C(C)C)[nH]c3c2)cc1)C(C)C [Compound 1238] | < 1 nM
24 | COC(=O)N[C@H](C(=O)N1CCC[C@H]1c1ncc(-c2ccc3cc(C#Cc4[nH]c([C@@H]5CCCN5C(=O)[C@@H](NC(=O)OC)[C@@H](C)OC)nc4C(F)(F)F)ccc3c2)[nH]1)C1CCCC1 [Compound 1260] | < 1 nM
25 | COC(=O)N[C@H](C(=O)N1CCC[C@H]1c1nc2ccc(C#Cc3ccc4c(ccc5nc([C@@H]6CCCN6C(=O)[C@@H](NC(=O)OC)C(C)C)[nH]c54)c3)cc2[nH]1)C(C)C [Compound 1273] | < 1 nM
26 | COC(=O)N[C@H](C(=O)N1CCC[C@H]1c1nc(C(F)(F)F)c(C#Cc2ccc3cc(-c4cnc([C@@H]5CCCN5C(=O)[C@@H](NC(=O)OC)[C@@H](C)OC)[nH]4)ccc3c2)[nH]1)C(C)C [Compound 1261] | < 1 nM
27 | COC(=O)N[C@H](C(=O)N1CCC[C@H]1CNC(=O)c1ccc(C#Cc2ccc3nc([C@@H]4CCCN4C(=O)[C@@H](NC(=O)OC)C(C)C)[nH]c3c2)cn1)C(C)C [Compound 1240] | 10 to 999 nM
28 | COC(=O)N[C@H](C(=O)N1CCC[C@H]1c1nc2ccc(C#Cc3ccc(-c4cnc([C@@H]5CCCN5C(=O)[C@@H](NC(=O)OC)[C@@H](C)OC)[nH]4)cc3)cc2[nH]1)C(C)C [Compound 1235] | < 1 nM
29 | COC(=O)N[C@@H](C(=O)N1CCN(C(C)=O)C[C@H]1c1ncc(-c2ccc(C#Cc3ccc4nc([C@@H]5CCCN5C(=O)[C@H](NC(=O)OC)c5ccccc5)[nH]c4c3)cc2)[nH]1)c1ccccc1 [Compound 1233] | < 1 nM
30 | C#CC[C@H](NC(=O)OC)C(=O)N1CCC[C@H]1c1nc2ccc(C#Cc3ccc4c(c3)CCCc3nc([C@@H]5CCCN5C(=O)[C@@H](NC(=O)OC)C(C)C)[nH]c3-4)cc2[nH]1 [Compound 1284] | < 1 nM
31 | COC(=O)N[C@@H](C(=O)N1CCC[C@H]1c1ncc(-c2ccc(C#Cc3ccc4nc([C@@H]5CCCN5C(=O)[C@H](NC(=O)OC)c5ccccc5)[nH]c4c3)cc2F)[nH]1)c1ccccc1 [Compound 1222] | < 1 nM
